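In this assay, cells in 96-well plates receive the compound at five concentrations for 48 hours. Endpoints are linearly interpolated between the surrounding concentrations. Here, GI50 denotes the concentration required for 50% inhibition of growth.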 Active and inactive are the calls of the source. Cut-off read from the data, not from the text of the source: active = GI50 up to about 1.1 µM and inactive = higher.
Tests used:
Experiment in all cases: growth of human tumour cells (NCI), 48 h
[1] = test system: BT-549
[2] = test system: HCC 2998
[3] = test system: SK-MEL-5
[4] = test system: MDA-MB-435
[5] = test system: KM12
[6] = test system: PC-3
[7] = test system: NCI-H460
[8] = test system: SF-268
[9] = test system: K562
[10] = test system: SF-295
[11] = test system: EKVX
[12] = test system: HOP-92
[13] = test system: NCI-H226
[14] = test system: HT-29
[15] = test system: SK-MEL-28
[16] = test system: SR
[17] = test system: OVCAR-5
[18] = test system: HCT-15
[19] = test system: UACC-257
[20] = test system: SK-MEL-2
[21] = test system: SNB-75
[22] = test system: DU-145
[23] = test system: LOX IMVI
[24] = test system: OVCAR-4
[25] = test system: MOLT-4
[26] = test system: IGROV-1
[27] = test system: COLO 205
[28] = test system: CAKI-1
[29] = test system: MDA-MB-231
[30] = test system: M14
[31] = test system: NCI/ADR-RES
[32] = test system: MCF7
[33] = test system: TK-10
[34] = test system: NCI-H522
[35] = test system: SW-620
[36] = test system: UACC-62
[37] = test system: UO-31
[38] = test system: RXF 393
[39] = test system: ACHN
[40] = test system: A498
[41] = test system: T47D
[42] = test system: HOP-62
[43] = test system: U-251
[44] = test system: OVCAR-3
[45] = test system: SF-539
[46] = test system: CCRF-CEM
[47] = test system: A549
[48] = test system: NCI-H23
[49] = test system: MDA-N
[50] = test system: OVCAR-8
[51] = test system: SN12C
[52] = test system: SK-OV-3
[53] = test system: Malme-3M
[54] = test system: SNB-19
[55] = test system: HCT-116
[56] = test system: HL-60
[57] = test system: 786-0
[58] = test system: RPMI-8226

Which results are given for [O-][Cl+3]([O-])([O-])O.c1ccc(C2=NN2c2ccccc2)cc1?
GI50 [1]: > 100 µM (inactive); GI50 [2]: 6.28 µM (inactive); GI50 [3]: 13.8 µM (inactive); GI50 [4]: 2.83 µM (inactive); GI50 [5]: 7.41 µM (inactive); GI50 [6]: 6.7 µM (inactive); GI50 [7]: 71.8 µM (inactive); GI50 [8]: 21.8 µM (inactive); GI50 [9]: 2.32 µM (inactive); GI50 [10]: > 100 µM (inactive); GI50 [11]: 92.7 µM (inactive); GI50 [12]: > 100 µM (inactive); GI50 [13]: 14.3 µM (inactive); GI50 [14]: 29.3 µM (inactive); GI50 [15]: > 100 µM (inactive); GI50 [16]: 26.7 µM (inactive); GI50 [17]: > 100 µM (inactive); GI50 [18]: 7.89 µM; GI50 [19]: 59.6 µM (inactive); GI50 [20]: > 100 µM (inactive); GI50 [21]: > 100 µM (inactive); GI50 [22]: 5.89 µM (inactive); GI50 [23]: 0.451 µM (active); GI50 [24]: > 100 µM (inactive); GI50 [25]: 3.73 µM (inactive); GI50 [26]: 34 µM (inactive); GI50 [27]: 7.76 µM (inactive); GI50 [28]: > 100 µM (inactive); GI50 [29]: > 100 µM (inactive); GI50 [30]: 9.82 µM (inactive); GI50 [31]: > 100 µM (inactive); GI50 [32]: 60 µM (inactive); GI50 [33]: > 100 µM (inactive); GI50 [34]: 35.3 µM (inactive); GI50 [35]: 6.01 µM (inactive); GI50 [36]: 1.21 µM (inactive); GI50 [37]: 15.9 µM (inactive); GI50 [38]: > 100 µM (inactive); GI50 [39]: 0.927 µM (active); GI50 [40]: > 100 µM (inactive); GI50 [41]: 7.13 µM (inactive); GI50 [42]: > 100 µM (inactive); GI50 [43]: > 100 µM (inactive); GI50 [44]: 84.9 µM (inactive); GI50 [45]: 76.2 µM (inactive); GI50 [46]: > 100 µM (inactive); GI50 [47]: 7.96 µM (inactive); GI50 [48]: 85.7 µM (inactive); GI50 [49]: 4.27 µM (inactive); GI50 [50]: > 100 µM (inactive); GI50 [51]: > 100 µM (inactive); GI50 [52]: > 100 µM (inactive); GI50 [53]: 29.5 µM (inactive); GI50 [54]: > 100 µM (inactive)

With O=C1CSC(c2c[nH]c3ccccc23)N1c1ccccc1[N+](=O)[O-] (stereo not drawn) as the compound, how does the GI50 [1] read?
Its GI50 is > 100 µM (inactive).

What about the GI50 [2] of the same compound?
The GI50 was > 100 µM (inactive).

And the GI50 [3]?
Its GI50 is > 100 µM (inactive).

What about the GI50 [4] of the same compound?
Its GI50 is > 100 µM (inactive).

What about the GI50 [55] of the same compound?
The GI50 was > 100 µM (inactive).

What about the GI50 [5] of the same compound?
Its GI50 is > 100 µM (inactive).

And the GI50 [6]?
Its GI50 is > 100 µM (inactive).

And the GI50 [7]?
Its GI50 is > 100 µM (inactive).

And the GI50 [8]?
The GI50 was > 100 µM (inactive).

What about the GI50 [9] of the same compound?
The GI50 was > 100 µM (inactive).

What about the GI50 [10] of the same compound?
Its GI50 is > 100 µM (inactive).

And the GI50 [11]?
The GI50 was > 100 µM (inactive).

And the GI50 [12]?
Its GI50 is > 100 µM (inactive).

And the GI50 [14]?
The GI50 was > 100 µM (inactive).

And the GI50 [15]?
Its GI50 is > 100 µM (inactive).

And the GI50 [16]?
Its GI50 is > 100 µM (inactive).

What about the GI50 [17] of the same compound?
Its GI50 is > 100 µM (inactive).

What about the GI50 [18] of the same compound?
Its GI50 is greater than 100 µM.

What about the GI50 [19] of the same compound?
Its GI50 is > 100 µM (inactive).

What about the GI50 [56] of the same compound?
Its GI50 is > 100 µM (inactive).

And the GI50 [57]?
Its GI50 is > 100 µM (inactive).

What about the GI50 [22] of the same compound?
The GI50 was > 100 µM (inactive).

And the GI50 [23]?
Its GI50 is > 100 µM (inactive).

What about the GI50 [24] of the same compound?
The GI50 was > 100 µM (inactive).

What about the GI50 [25] of the same compound?
Its GI50 is > 100 µM (inactive).

And the GI50 [26]?
The GI50 was > 100 µM (inactive).

And the GI50 [27]?
The GI50 was > 100 µM (inactive).

What about the GI50 [29] of the same compound?
The GI50 was > 100 µM (inactive).

And the GI50 [30]?
Its GI50 is > 100 µM (inactive).

What about the GI50 [32] of the same compound?
Its GI50 is > 100 µM (inactive).

And the GI50 [33]?
The GI50 was > 100 µM (inactive).

What about the GI50 [34] of the same compound?
The GI50 was > 100 µM (inactive).

What about the GI50 [35] of the same compound?
Its GI50 is > 100 µM (inactive).

What about the GI50 [36] of the same compound?
Its GI50 is > 100 µM (inactive).

What about the GI50 [37] of the same compound?
The GI50 was > 100 µM (inactive).

What about the GI50 [38] of the same compound?
The GI50 was > 10 µM (inactive).

What about the GI50 [41] of the same compound?
Its GI50 is > 100 µM (inactive).

What about the GI50 [42] of the same compound?
Its GI50 is > 100 µM (inactive).

What about the GI50 [43] of the same compound?
Its GI50 is > 100 µM (inactive).

What about the GI50 [44] of the same compound?
The GI50 was > 100 µM (inactive).

And the GI50 [45]?
The GI50 was > 100 µM (inactive).

And the GI50 [46]?
Its GI50 is > 100 µM (inactive).

And the GI50 [47]?
The GI50 was > 100 µM (inactive).

And the GI50 [58]?
Its GI50 is > 100 µM (inactive).

And the GI50 [48]?
Its GI50 is > 100 µM (inactive).

What about the GI50 [49] of the same compound?
Its GI50 is > 100 µM (inactive).

What about the GI50 [50] of the same compound?
Its GI50 is > 100 µM (inactive).

What about the GI50 [51] of the same compound?
Its GI50 is > 100 µM (inactive).

And the GI50 [52]?
The GI50 was > 100 µM (inactive).

What about the GI50 [54] of the same compound?
Its GI50 is > 100 µM (inactive).

How did the GI50 [1] turn out when N#Cc1c(-c2ccccc2)cc(Nc2cccc(C(F)(F)F)c2)n2c1nc1ccccc12 was run?
The GI50 was 3.82 µM (inactive).

And the GI50 [3]?
The GI50 was 0.548 µM (active).

What about the GI50 [4] of the same compound?
Its GI50 is 2.01 µM (inactive).

And the GI50 [55]?
The GI50 was 0.471 µM (active).

What about the GI50 [5] of the same compound?
The GI50 was 2.17 µM (inactive).

And the GI50 [7]?
Its GI50 is 0.766 µM (active).

What about the GI50 [8] of the same compound?
Its GI50 is 1.29 µM (inactive).

What about the GI50 [10] of the same compound?
Its GI50 is 1.7 µM (inactive).

And the GI50 [11]?
The GI50 was 1.2 µM (inactive).

And the GI50 [12]?
Its GI50 is 0.206 µM (active).

And the GI50 [13]?
The GI50 was 0.687 µM (active).

And the GI50 [14]?
The GI50 was 1.16 µM (inactive).

And the GI50 [15]?
The GI50 was 9.12 µM (inactive).

And the GI50 [17]?
The GI50 was 2.68 µM (inactive).

What about the GI50 [18] of the same compound?
The GI50 was 1.38 µM.

What about the GI50 [19] of the same compound?
The GI50 was 0.733 µM (active).

And the GI50 [21]?
Its GI50 is 1.82 µM (inactive).

And the GI50 [57]?
Its GI50 is 1.54 µM (inactive).

What about the GI50 [22] of the same compound?
Its GI50 is 4.04 µM (inactive).

And the GI50 [23]?
The GI50 was 1.2 µM (inactive).

And the GI50 [24]?
The GI50 was 0.912 µM (active).

What about the GI50 [25] of the same compound?
The GI50 was 0.76 µM (active).

And the GI50 [27]?
The GI50 was 1.04 µM (active).

And the GI50 [28]?
Its GI50 is 1.91 µM (inactive).

And the GI50 [29]?
The GI50 was 1.71 µM (inactive).

What about the GI50 [31] of the same compound?
The GI50 was 1.33 µM (inactive).

And the GI50 [33]?
The GI50 was 2.56 µM (inactive).

What about the GI50 [34] of the same compound?
Its GI50 is 0.245 µM (active).

What about the GI50 [35] of the same compound?
Its GI50 is 3.05 µM (inactive).

And the GI50 [38]?
Its GI50 is 1.99 µM (inactive).

What about the GI50 [39] of the same compound?
Its GI50 is 1.88 µM (inactive).

And the GI50 [40]?
Its GI50 is 1.64 µM (inactive).

And the GI50 [41]?
Its GI50 is 0.764 µM (active).

And the GI50 [42]?
The GI50 was 1.77 µM (inactive).

What about the GI50 [43] of the same compound?
Its GI50 is 0.611 µM (active).

What about the GI50 [44] of the same compound?
Its GI50 is 0.561 µM (active).

And the GI50 [45]?
Its GI50 is 2.22 µM (inactive).

And the GI50 [58]?
The GI50 was 0.237 µM (active).

What about the GI50 [48] of the same compound?
The GI50 was 0.336 µM (active).

And the GI50 [49]?
The GI50 was 1.4 µM (inactive).

And the GI50 [50]?
The GI50 was 1.01 µM (active).

And the GI50 [51]?
Its GI50 is 0.519 µM (active).

And the GI50 [52]?
Its GI50 is 1.11 µM (active).

What about the GI50 [53] of the same compound?
The GI50 was 1.27 µM (inactive).
